We go through two compounds from patent US20250339569A1, “CARBONIC ANHYDRASE IX LIGANDS” (priority 2021, published 2025).

Experiment [1] deals with T1, human CAIX (Homo sapiens, UniProt Q16790). Briefly: In vitro SPR binding assay of DPI-4452, natLu-DPI-4452 and natGa-DPI-4452 to CAIX (anti-human Fc capture). Also on record: purchased SinoBliological (Sino Biological) 10107-H02H. For orientation: In SPR one partner is held on a chip, and binding of the other changes the refractive index at the surface.
Protocol: Surface Plasmon Resonance (SPR) studies were performed on a Biacore™ T200 using a ligand capture approach. Basically, anti-human Fc antibodies were immobilized on the surface of a sensor chip and CAIX was captured on the functionalized surface via its Fc Tag.
Then, each compound was injected at increasing concentrations on the captured CAIX in order to measure the in real-time interaction of the compound to its target (i.e. the captured CAIX). The in real-time monitoring of the association and dissociation of the interaction gives access to the interaction kinetics parameters (i.e. the association and dissociation rate constants and the resulting affinity constants).
• A series S CM5 sensor chip was used (Cytiva). • All reagents used for the immobilization procedure were part of the Amine Coupling Kit, type 2 and/or the Human Antibody Capture Kit (Cytiva). The running buffer (HBS-EP+) was prepared by 10-fold dilution of the stock HBS-EP+ 10× solution (Cytiva). • Anti-human Fc antibodies stock solution (0.5 mg/mL in 0.15 M NaCl) was diluted in 10 mM sodium acetate pH 5.0 to a final concentration of 25 μg/mL directly into a plastic vial 7 mm. • Amine coupling reagents were transferred into plastic vials 7 mm as follow: • 95 μL of 0.4 M 1-ethyl-3-(3-dimethylaminopropyl)carbodiimide (EDC). • 95 μL of 0.1 M N-hydroxysuccinimide (NHS). • An empty plastic vial 7 mm was added in the Biacore™ sample rack for mixing. • 150 μL of 1 M ethamolamine-HCl, pH 8.5. • Plastic vials were closed with rubber caps and the sample rack was inserted into the Biacore™ T200 sample compartment. • The Biacore™ T200 Amine Wizard was used to immobilize the anti-Human Fc antibodies on the four flow-cells of a series S CM5 sensor chip simultaneously with defined contact time of 360 seconds and flow-rate of 5 μL/min. • The immobilization procedure was performed at 25° C., following Cytiva's recommendations, as described in Table 23.
This procedure allowed to reach immobilization levels between 6000 and 9000 RU of anti-human Fc antibodies on the sensor chip surface.
• CAIX (Sino Biological, 10107-H02H) stock solution was prepared from lyophilized material reconstituted with deionized water to a concentration of 0.25 μg/mL (3.69 μM), following the supplier recommendations. • CAIX working solution was obtained after dilution of CAIX stock solution with PBS-P+1×, 0.1% DMSO to a final concentration of 200 nM directly in a Biacore™ plastic vial.
• For each measurement, the raw surface plasmon resonance response (RU) was plotted against time (s) as a sensorgram using the Biacore™ T200 Control Software. • Raw data were corrected by double referencing with subtraction of the signal of both the reference flow-cell and the blank cycle. • The association and dissociation rate constants (ka and kd, respectively), as well as the dissociation constant KD and dissociation half-life t1/2 were determined from the corrected sensorgrams by fitting the data to a 1:1 Langmuir binding model with the Biacore™ T200 evaluation software.
The target of experiment [2] is T1, human CAIX. Briefly: Radioligand saturation binding and equilibration on CHO-huCAIX. Also on record: host or cells: CHO-VGT / CHO cells. The procedure:
(§1) After attainment of equilibrium, the cells were harvested, and the bound fraction of the compounds was measured. The resulting saturation binding data were analyzed using Graph Pad Prism 8.3.
(§2) CHO cells transfected with human, dog, and mouse CAIX (CHO-huCA9 T04J-1/20 K1, CHO-dogCA9 T05J-9/20 K4, CHO-murCA9 T05J-3/20 K4) were obtained from InSCREENex (Germany).
(§3) A molar excess of 3BP-3565 was used as a blocking peptide to assess non-specific binding in autoradiographic studies. 3BP-3565 binds with a similar affinity to CAIX and blocks binding sites of test compounds. For the blocking solution, a 10 mM stock solution of 3BP-3565 was prepared by dissolution in DMSO.
(§4) CHO cells were maintained in Ham's medium supplemented with 10% fetal bovine serum, 2 mM L-glutamine, 100 U/mL Penicillin and 0.1 mg/mL streptomycin under standard cell culture conditions. The cells were grown in uncoated cell culture flasks (150 cm^2, Biochrom) to subconfluence and then split 1:2-1:3. Approximately 24 hours before the assay, cells were detached by incubation with Accutase and carefully tapping the flasks. Detached cells were resuspended in medium and collected by centrifugation (300 g, 5 min, RT). Cell pellets were resuspended in cell culture medium and counted using a particle counter (CASY Model TT, Scharfe Systems, Germany). Cell concentrations were adjusted to 3×10^5 mL^−1, and 1.000 μL per well of the suspension were dispensed into poly-D-lysine-coated flat-clear-bottom 24 well plates.
(§5) Compound radiolabeling was performed as follows. […] Then, 25 mg/mL methionine in 1 M sodium acetate buffer pH 5 was added at a final concentration of 0.1 M sodium acetate. Subsequently, the mixture was heated to 80° C. for 25 min, followed by cooling for 5 minutes. Finally, 20 μL of 200 mg/mL ascorbic acid solution, 2.5 μL of 5 mg/mL DTPA and 2.5 μL of 5% TWEEN-20 per 100 μL reaction mixture were added, resulting in the concentrated study solution. For quality control, an aliquot of the labeling solution was diluted 1:40 with 0.1% TWEEN-20 in 0.1 M sodium acetate buffer pH 5. Five microliters of the diluted labeling solution were injected onto a Poroshell SB-C18 2.1×50 mm, 2.7 μm column. HPLC analysis was performed as follows: Gradient A: H2O, 0.1% TFA, Gradient B: Acetonitrile (MeCN), gradient from 5% B to 70% B within 15 min, flow rate of 0.5 mL/min; detector: NaI, DAD 215 nm. The peak eluting with the dead volume represents free radionuclide, the peak eluting with the ligand-specific retention time as determined with a non-labeled sample represents the radiolabeled compound.
The assessment of the time needed until attainment of equilibration on CHO-huCAIX and CHO-dgCAIX was performed as follows. The 10 mM 3BP-3565 stock solution was diluted with assay medium (Ham's medium without additives) to prepare an 8-μM blocking working solution. The radiolabeling mixtures were diluted with assay medium to prepare 160 nM radioligand working solutions. Subsequently, 1.6 and 3.2 nM radioligand dilutions were prepared by diluting the radioligand working solutions 1:100 and 1:50, respectively, with assay medium. Approximately 24 hours after re-seeding (3×10^5 mL^−1 cells per well), the medium was aspirated, and the cells were washed once with assay medium (700 μL). To determine total binding, 700 μL of binding medium and 100 μL of the radioligand dilutions were added to the wells in triplicates.
To determine non-specific binding, 600 μL of binding medium, 100 μL of the […] 3BP-3565 blocking solution and 100 μL of the radioligand dilutions were added to the wells in triplicates. The plates were incubated for 1 h, 3 h, 6 h, and 8 h at 37° C. under standard cell culture conditions (5% CO2). At the end of the incubation time, the plates were placed on ice while aspirating the radioligand solutions. Subsequently, the cells were washed with ice-cold PBS (0.5 mL, 1 mL, 1 mL). […]

The target of another experiment is T2, mouse CAIX (Mus musculus, UniProt Q8VHB5).
T2 construct: host or cells: CHO-VGT / CHO cells
The experiment in a line: Radioligand saturation binding on CHO-msCAIX. The procedure:
as §1, §2, §3, §4, §5
The radioligand saturation binding on CHO-msCAIX was determined as follows. […] Their associated radioactivity was counted using a gamma counter and normalized to the measured protein concentration of each well. […]

T2 sequence (Q8VHB5 32-437): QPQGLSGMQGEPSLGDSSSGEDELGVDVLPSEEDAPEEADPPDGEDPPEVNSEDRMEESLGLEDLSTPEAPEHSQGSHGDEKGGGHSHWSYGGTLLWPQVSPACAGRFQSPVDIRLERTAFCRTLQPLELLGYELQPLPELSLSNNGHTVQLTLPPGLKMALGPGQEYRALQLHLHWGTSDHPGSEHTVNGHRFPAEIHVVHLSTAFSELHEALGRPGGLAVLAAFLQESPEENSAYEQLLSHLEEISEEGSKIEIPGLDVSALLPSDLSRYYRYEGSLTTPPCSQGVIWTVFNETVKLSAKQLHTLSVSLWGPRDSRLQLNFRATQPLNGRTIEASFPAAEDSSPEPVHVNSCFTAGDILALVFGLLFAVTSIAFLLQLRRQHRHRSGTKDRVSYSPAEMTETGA

For `CC(C)C[C@@H]1NC(=O)[C@H](Cc2cccc(NC(=O)CCCS(N)(=O)=O)c2)NC(=O)[C@H](CC(=O)O)NC(=O)[C@H]2CCCN2C(=O)[C@H](CCC(=O)O)NC(=O)[C@@H](NC(=O)[C@H](CCC(N)=O)NC(=O)CN2CCN(C(=O)CN3CCN(CC(=O)O)CCN(CC(=O)O)CCN(CC(=O)O)CC3)CC2)CSCc2cccc(c2)CSC[C@@H](C(N)=O)NC(=O)[C@H](CO)NC(=O)[C@H](Cc2c[nH]c3ccccc23)NC(=O)[C@H]([C@@H](C)O)NC1=O` [DPI-4452, DOTA-PPAc-Gln-[Cys(3MeBn)-Glu-pro-Asp-Af3(Cpsu)-Leu-Thr-Trp-Ser-Cys]-NH2], on human CAIX [1] (SPR), the “affinity of binding to CAIX” value is on record as “subnanomolar affinity”. The t1/2 on human CAIX [1] (SPR dissociation half-life) is given as 99 min. This compound returned a mean dissociation half-life on human CAIX [1] (SPR, 25°C) of 99 min.

A word on the Kd: it is the constant that tells how readily two partners part at equilibrium. `CC(C)C[C@@H]1NC(=O)[C@H](Cc2cccc(NC(=O)CCCS(N)(=O)=O)c2)NC(=O)[C@H](CC(=O)O)NC(=O)[C@H]2CCCN2C(=O)[C@H](CCC(=O)O)NC(=O)[C@@H](NC(=O)[C@H](CCC(N)=O)NC(=O)CN2CCN(C(=O)CN3CCN(CC(=O)O)CCN(CC(=O)O)CCN(CC(=O)O)CC3)CC2)CSCc2cccc(c2)CSC[C@@H](C(N)=O)NC(=O)[C@H](CO)NC(=O)[C@H](Cc2c[nH]c3ccccc23)NC(=O)[C@H]([C@@H](C)O)NC1=O` [[^111In]In-DPI-4452, metal not drawn]: the Kd is 0.316 nM on human CAIX [2] (Mean pKd ± SD, CHO-huCAIX); 0.2 nM on human CAIX [2] (pKd, CHO-huCAIX, first independent experiment); 0.501 nM on human CAIX [2] (pKd, CHO-huCAIX, second independent experiment); at most 1 nM on human CAIX [2] (pKd, human CAIX expressed in CHO cells, 8 h at 37°C); 63.1 nM on mouse CAIX. Further, at mouse CAIX (CHO-msCAIX, single experiment), the “Mean pKd ± SD” value was 7.2.
